# What was measured:
# [1] = system: human melanocytes; test: Potency in human melanocytes; type: cell-based
# [2] = system: mouse MCRs; details: cited from earlier work
substance,measurement,setting,value
trans-4-HOC6H4CH═CHCO-His-D-Phe-Arg-NH2,potency in human melanocytes,[1],less potent in human melanocytes
same,MC1R selectivity and potency compared to tripeptide LK-394,[2],moderately increased MC1R selectivity and potency

# — patent publication US10301355B2, “Method of using pharmaceutical compositions comprising selective peptide-based agonists of melanocortin 1 receptor” (University of Cincinnati, priority 2012, dated 2019)
